{"source": "patent US8685936B2", "about": "“Sphingosine kinase inhibitor prodrugs” (Apogee Biotechnology Corporation, priority 2009, dated 2014)", "key": {"DSS-colitis model": {"tested_on": "DSS-colitis model", "test": "Acute DSS-colitis model of inflammatory bowel disease", "type": "in vivo, C57BL/6 mice", "details": "for colon length (contraction of the colon), ester prodrugs: 4-5 per group (Example 17, FIG. 10)", "description": "FIG. 7. Effects of Compound 1 and Compound 2 on the Disease Activity Index (DAI) in the acute DSS-colitis model. […] After 6 days, the DAI was calculated for each group. Values represent the mean±std. dev. for 5-6 mice per group. […] FIG. 8. Effects of Compound 1 and Compound 2 on colon length in the acute DSS-colitis model. […] After 6 days, the animals were sacrificed and the length of the colon was measured. Values represent the mean±std. dev. for 6-7 mice per group. In this model, colon length decreases as the disease progresses. […] FIG. 9. Effects of Compound 1 and Compound 2 on neutrophil infiltration into the colon in the acute DSS-colitis model. […] After 6 days, the animals were sacrificed and the colons were harvested. Myeloperoxidase activity (MPO) was measured and normalized by the protein concentration of the samples. Values represent the mean±std. dev. for 6-7 mice per group. In this model, MPO activity in the colon increases as a result of neutrophil infiltration into the colon as the disease progresses. […] FIG. 10. Effects of ester prodrugs on colon length in the acute DSS-colitis model. C57BL/6 mice were treated for 6 days as follows: 2% DSS in the drinking water and daily oral administration of Vehicle (described in FIG. 7); or 2% DSS in the drinking water and oral administration of 50 mg/kg the indicated ester prodrugs in Vehicle. After 6 days, the animals were sacrificed and the length of the colon was measured. Values represent the mean±std. dev. for 4-5 mice per group. In this model, colon length decreases as the disease progresses. […] FIG. 11. Effects of ester prodrugs on neutrophil infiltration into the colon in the acute DSS-colitis model. C57BL/6 mice were treated for 6 days as follows: 2% DSS in the drinking water and daily oral administration of Vehicle (described in FIG. 7); or 2% DSS in the drinking water and oral administration of 50 mg/kg the indicated ester prodrugs in Vehicle. After 6 days, the animals were sacrificed and the length of the colon was measured. Values represent the mean±std. dev. for 4-5 mice per group. In this model, MPO activity in the colon increases as a result of neutrophil infiltration into the colon as the disease progresses. […] In these experiments, male C57BL/6 mice were provided with standard rodent diet and water ad libitum. After their acclimation, the animals were randomly divided into groups of 5 or 6 for DSS (40,000 MW from ICN Biomedicals, Inc., Aurora, Ohio)- and drug-treatment. The Compounds were dissolved in a Vehicle consisting of 46.7% PEG 400, 46.7% of a solution of 0.375% Tween 80 in saline and 6.6% ethanol, and given once daily (starting on Day 0) by oral gavage in a volume of 0.1 mL per dose. The mice were given normal drinking water or 2% DSS (starting on Day 0) and treated orally with Compound 1 or Compound 2 at a dose of 50 mg/kg daily. The body weight of each animal was measured each day, and the Disease Activity Index (DAI) was scored for each animal on Day 6. On Day 6, the animals were sacrificed by cervical dislocation and the entire colon was removed and measured to the nearest 0.1 cm. The distal 3 cm of the colons were used for biochemical analyses of inflammation markers."}, "[1]": {"test": "Conversion of Compound 2 to Compound 1 in living mice; plasma levels of Compound 1 by HPLC", "type": "in vivo", "description": "FIG. 4. Conversion of Compound 2 into Compound 1 in vivo. Balb/C female mice, 6-8 weeks old, were dosed with either Compound 1 (●) or Compound 2 (♦) at 50 mg/kg by intravenous injection. Mice were euthanized at the indicate times after injection, and blood was harvested by cardiac puncture and plasma was prepared. The plasma was then extracted and analyzed for Compound 1 levels by HPLC.\nTo extend the in vitro studies described above, the ability of Compound 2 to be converted to Compound 1 in an in vivo test system was determined. In these experiments, Compound 1 or Compound 2 was dissolved in PEG400 and administered to female Balb/C mice at a dose of 50 mg/kg by intravenous injection. Mice were sacrificed and blood was removed via cardiac puncture at 2 minutes, 15 minutes, 30 minutes or 60 minutes. The concentration of Compound 1 in the blood of the animals at each of the time points was determined using HPLC with UV detection as described in the previous Example. […] In the case of administration of Compound 2, plasma concentrations of Compound 1 rose during the first 30 minutes and then were decreased with a half-time of clearance of approximately 20 minutes."}, "[2]": {"tested_on": "Murine JC mammary adenocarcinoma cells", "test": "Cytotoxicity, MTS cell viability assay", "type": "cell-based", "details": "72 hours", "source_text": "FIG. 5. Inhibition of tumor cell proliferation by Compound 1 and Compound 2. Murine JC mammary adenocarcinoma cells were exposed to the indicated concentrations of either Compound 1 (▪) or Compound 2 (▴) for 72 hr. At the end of the exposure, the number of viable tumor cells was quantified using the MTS assay. Values represent the fraction of surviving cells compared with DMSO-(vehicle)-treated control cells.\nTo further assess the biological efficacies of the Compounds in intact cells, Compound 1 and Compound 2 were evaluated for cytotoxicity using a murine breast cancer cell line. These experiments followed methods that have been extensively used. The cells were treated with varying doses of the test Compound for 72 hours, and then cell viability was measured using CellTiter 96® AQueous Non-Radioactive Cell Proliferation Assay (MTS) available from Promega Corporation. Values represent the mean±std. dev. percentage of cells that survive at each of the indicated concentrations of Compound 1 or Compound 2. […] However, the extent of cell killing and the potency for cell killing were greater for Compound 2 than Compound 1."}, "[3]": {"tested_on": "TNBS-induced Crohn's Disease model", "test": "TNBS-induced Crohn's Disease model", "type": "in vivo", "description": "FIG. 12. Effects of Compound 1 and Compound 2 on colon histology in the TNBS-induced Crohn's Disease model. On Day 0, female Sprague-Dawley rats were administered TNBS using a stainless steel catheter that was inserted into the colon (8 cm proximal to the anus; 1.0 mL of solution containing 30 mg TNBS and 20% ethanol in PBS). On Days 0-5 animals received daily oral gavage of Vehicle (described in FIG. 7) or 50 mg/kg of Compound 1 or Compound 2 in Vehicle. On Day 6, the colons were removed, weighed and scored for macroscopic damage. The distal 6 cm were transected for subsequent histology and biochemical analyses. In this model, the macroscopic score is an index of histologic damage to the colon which increases as the disease progresses.\nFIG. 13. Effects of Compound 1 and Compound 2 on colon weight in the TNBS-induced Crohn's Disease model. Colon weights were measured for the rats described in FIG. 12. Values represent the mean±std. dev. for 5-6 rats per group. In this model, colon weight increases as the disease progresses due to progressive inflammation-mediated edema.\nFIG. 14. Effects of Compound 2 on neutrophil infiltration into the colon in the TNBS-induced Crohn's Disease model. Neutrophil infiltration was evaluated in the rats described in FIG. 12. Values represent the mean±std. dev. for 5-6 rats per group. In this model, MPO activity in the colon increases as a result of neutrophil infiltration into the colon as the disease progresses.\nThe trinitrobenzene sulfonic acid (TNBS) model in rats provides a rapid, reliable and reproducible IBD model that mimics the manifestations of Crohn's Disease. Application of the hapten TNBS to the colon in the presence of ethanol results in transmural infiltrative disease that is limited to the colon and appears to be an IL-12-driven, Th1-mediated immunologic response. […] TNBS induces measurable injury within 2 to 3 days, peak acute inflammation within a week, and gradual progression into chronic inflammation lasting about 2 months.\nTo test the efficacy of the Compounds, groups of female Sprague-Dawley rats were administered TNBS on Day 0 and treated with vehicle (as the negative control group), Compound 1 or Compound 2 on Days 0-5 by oral gavage at a dose of 50 mg/kg/day. […] Disease progression was evaluated by macroscopic score, colon weight and colon MPO activity at sacrifice. The macroscopic score measures macroscopic damage within the distal 6 cm of the colon using a system that considers the extent of and number of ulcerations."}, "[4]": {"details": "2% DSS, 50 mg/kg oral, 6 days, C57BL/6 mice"}, "[5]": {"details": "TNBS Day 0, 50 mg/kg/day oral gavage Days 0-5, Day 6, female Sprague-Dawley rats"}}, "note": "“Also recorded” adds a separate entry of the source.", "data": [{"smiles": "CCC(=O)Oc1ccc(CCNC(=O)C23CC4CC(C2)CC(c2ccc(Cl)cc2)(C4)C3)cc1OC(=O)CC", "note": "[Compound 3, Propionic acid 2-propionyloxy-5-(2-{[3-(4-chlorophenyl)-adamantane-1-carbonyl]-amino}ethyl)phenyl ester]", "values": [{"measurement": "colon length (contraction of the colon), ester prodrugs", "setting": "DSS-colitis model; [4]", "result": "effective in preventing the contraction of the colons"}, {"measurement": "melting point", "result": "114 to 115", "unit": "°C"}]}, {"smiles": "O=C(NCCc1ccc(O)c(O)c1)C12CC3CC(C1)CC(c1ccc(Cl)cc1)(C3)C2", "note": "[Compound 1, 3-(4-Chlorophenyl)-adamantane-1-carboxylic acid [2-(3,4-dihydroxyphenyl)-ethyl]amide]", "values": [{"measurement": "time of maximum plasma concentration of Compound 1", "setting": "[1]; 50 mg/kg intravenous, female Balb/C mice, sampling at 2, 15, 30, 60 minutes", "result": "earliest time point"}, {"measurement": "half-time for clearance of Compound 1 from plasma", "setting": "[1]; 50 mg/kg of the named compound by intravenous injection in PEG400, female Balb/C mice, Compound 1 measured", "result": "approximately 5 minutes"}, {"measurement": "inhibition of tumor cell proliferation (cell viability)", "setting": "[2]", "result": "can inhibit tumor cell proliferation"}, {"measurement": "Disease Activity Index (DAI)", "setting": "DSS-colitis model; 2% DSS in drinking water, 50 mg/kg daily oral, Day 6, C57BL/6 mice", "result": "reduced the intensity of the IBD manifestations"}, {"measurement": "colon myeloperoxidase (MPO) activity (neutrophil infiltration)", "setting": "DSS-colitis model; 2% DSS, 50 mg/kg daily oral, Day 6, C57BL/6 mice (Example 16, FIG. 9)", "result": "markedly attenuated"}, {"measurement": "colon length", "setting": "DSS-colitis model; 2% DSS, 50 mg/kg oral, Day 6, C57BL/6 mice (Example 16, FIG. 8)", "result": "colons of significantly longer length"}, {"measurement": "Compound-related toxicities", "setting": "[3]; 50 mg/kg/day oral gavage Days 0-5, rats sacrificed on Day 6", "result": "no Compound-related toxicities apparent"}, {"measurement": "Macroscopic Score of colon damage", "setting": "[3]; [5]", "result": "but not Compound 1, reduced the Macroscopic Score; also recorded: much less active"}, {"measurement": "colon weight", "setting": "[3]; [5]", "result": "but not Compound 1 reduced the elevation of the colon weight; also recorded: much less active"}]}, {"smiles": "CCCC(=O)Oc1ccc(CCNC(=O)C23CC4CC(C2)CC(c2ccc(Cl)cc2)(C4)C3)cc1OC(=O)CCC", "note": "[Compound 4, Butyric acid 2-butyryloxy-5-(2-{[3-(4-chlorophenyl)-adamantane-1-carbonyl]-amino}ethyl)phenyl ester]", "values": [{"measurement": "colon length (contraction of the colon), ester prodrugs", "setting": "DSS-colitis model; 2% DSS, 50 mg/kg oral, 6 days, C57BL/6 mice, 50 mg/kg", "result": "effective in preventing the contraction of the colons; also recorded: slightly less effective"}, {"measurement": "melting point", "result": "78 to 80", "unit": "°C"}]}, {"smiles": "CC(C)C(N)C(=O)Oc1cc(CCNC(=O)C23CC4CC(C2)CC(c2ccc(Cl)cc2)(C4)C3)ccc1O", "note": "(stereo not drawn) [Compound 6, 2-Amino-3-methyl-butyric acid 5-(2-{[3-(4-chlorophenyl)adamantane-1-carbonyl]amino}ethyl)-2-hydroxyphenyl ester]", "values": [{"measurement": "colon length (contraction of the colon), ester prodrugs", "setting": "DSS-colitis model; [4]", "result": "effective in preventing the contraction of the colons"}, {"measurement": "colonic MPO activity, ester prodrugs", "setting": "DSS-colitis model; 2% DSS, 50 mg/kg oral, 6 days, C57BL/6 mice, 4-5 per group (Example 17, FIG. 11)", "result": "all of the Compounds except Compound 6 substantially prevented the elevation of colonic MPO activity"}]}]}
